These compounds were tested on HCV replicon, genotype-1a variant with glutamine 30 changed to glutamate in the NS5A protein (assay: microbe, parasite or virus in culture). Settings: HCV replicon genotype 1a Q30E (Q→E) variant; test compound titrated with an NS5A-targeting compound (BMS-790052 fixed at 200 nM); ranking of synergist activity.
Type: cell-based, HCV genotype 1a
Summary of the method: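 Synergy was assessed by combining several fixed amounts of an NS5A-targeting compound with a titration of the second compound of interest.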
For CC(C)(C)[C@H](NC(=O)C1(C)OCCCC1(F)F)c1nc(-c2ccc(-c3ccc(-c4c[nH]c([C@@H](NC(=O)C5(C)OCCCC5(F)F)C(C)(C)C)n4)cc3)cc2)c[nH]1 (stereo partly drawn) [Compound P-162], the “Fold-Synergistic 1a (Q30E)” value was greater than 100 fold. CC(C)N(C(=O)C(=O)N[C@H](c1nc(-c2ccc(-c3ccc(-c4c[nH]c([C@@H](NC(=O)C(=O)N(C(C)C)C5CC5)C5CC5)n4)cc3)cc2)c[nH]1)C1CC1)C1CC1 [Compound L-36] was tested, and the “Fold-Synergistic 1a (Q30E)” value was greater than 100 fold. CO[C@H]1C[C@@H](C(=O)N[C@H](c2nc(-c3ccc(-c4ccc(-c5c[nH]c([C@@H](NC(=O)[C@@H]6C[C@H](OC)CN6C(=O)OC(C)(C)C)C(C)(C)C)n5)cc4)cc3)c[nH]2)C(C)(C)C)N(C(=O)OC(C)(C)C)C1 [Compound W-115] was tested, and the “Fold-Synergistic 1a (Q30E)” value was greater than 100 fold. CC(C)[C@H](NC(=O)C(C)(C)F)c1nc(-c2ccc(-c3ccc(-c4c[nH]c([C@@H](NC(=O)C(C)(C)F)C(C)C)n4)c(F)c3)cc2)c[nH]1 [Compound N-90] was tested, and the “Fold-Synergistic 1a (Q30E)” value was greater than 100 fold. In the case of CO[C@](C(=O)N[C@H](c1nc(-c2ccc(-c3ccc(-c4c[nH]c([C@@H](NC(=O)[C@@](OC)(c5ccccc5)C(F)(F)F)C(C)(C)C)n4)cc3)cc2)c[nH]1)C(C)(C)C)(c1ccccc1)C(F)(F)F [Compound P-141], the “Fold-Synergistic 1a (Q30E)” value is reported as greater than 100 fold. In the case of O=C(c1cccc(-c2ccccc2)c1)N1CCC[C@H]1c1ncc(-c2ccc(-c3ccc(-c4cnc([C@@H]5CCCN5C(=O)c5cccc(-c6ccccc6)c5)[nH]4)cc3)cc2)[nH]1 [Compound S-128], the “Fold-Synergistic 1a (Q30E)” value is reported as greater than 10 fold. With CC1(C(=O)N[C@H](c2nc(-c3ccc(-c4ccc(-c5c[nH]c([C@@H](NC(=O)C6(C)CCOCC6)C(C)(C)C)n5)cc4)cc3)c[nH]2)C(C)(C)C)CCOCC1 [Compound W-130] the “Fold-Synergistic 1a (Q30E)” value was greater than 100 fold. With Cc1c2c(nn1C)CCC(C(=O)N[C@H](c1nc(-c3ccc(-c4ccc(-c5c[nH]c([C@@H](NC(=O)C6CCc7nn(C)c(C)c7C6)C(C)(C)C)n5)cc4)cc3)c[nH]1)C(C)(C)C)C2 (stereo partly drawn) [Compound S-278] the “Fold-Synergistic 1a (Q30E)” value was greater than 100 fold. In the case of COC(=O)N[C@H](C(=O)NC1(c2nc(-c3ccc(-c4ccc(-c5c[nH]c(C6(NC(=O)[C@@H](NC(=O)OC)C(C)C)CC6)n5)cc4)cc3)c[nH]2)CC1)C(C)C [Compound N-20], the “Fold-Synergistic 1a (Q30E)” value is reported as less than 10 fold. With CCN(CC(F)(F)F)C(=O)C(=O)N[C@H](c1nc(-c2ccc(-c3ccc(-c4c[nH]c([C@@H](NC(=O)C(=O)N(CC)CC(F)(F)F)C(C)(C)C)n4)cc3)cc2)c[nH]1)C(C)(C)C [Compound W-37] the “Fold-Synergistic 1a (Q30E)” value was greater than 100 fold. CC(C)(C)OC(=O)N1CC2(CC2)C[C@H]1C(=O)N[C@H](c1nc(-c2ccc(-c3ccc(-c4c[nH]c([C@@H](NC(=O)[C@@H]5CC6(CC6)CN5C(=O)OC(C)(C)C)C(C)(C)C)n4)cc3)cc2)c[nH]1)C(C)(C)C [Compound W-94] was tested, and the “Fold-Synergistic 1a (Q30E)” value was greater than 100 fold. For CC(C)(C)[C@H](NC(=O)C1(C(=O)N2CCC(F)(F)CC2)CC1)c1nc(-c2ccc(-c3ccc(-c4c[nH]c([C@@H](NC(=O)C5(C(=O)N6CCC(F)(F)CC6)CC5)C(C)(C)C)n4)cc3)cc2)c[nH]1 [Compound P-148], the “Fold-Synergistic 1a (Q30E)” value was greater than 100 fold. With CC(C)(C)OC(=O)N1CC2(CC(C(=O)N[C@H](c3nc(-c4ccc(-c5ccc(-c6c[nH]c([C@@H](NC(=O)C7CC8(C7)CN(C(=O)OC(C)(C)C)C8)C(C)(C)C)n6)cc5)cc4)c[nH]3)C(C)(C)C)C2)C1 (stereo partly drawn) [Compound L-57] the “Fold-Synergistic 1a (Q30E)” value was greater than 100 fold. With O=C(c1ccc(-c2ccccc2)cc1)N1CCC[C@H]1c1ncc(-c2ccc(-c3ccc(-c4cnc([C@@H]5CCCN5C(=O)c5ccc(-c6ccccc6)cc5)[nH]4)cc3)cc2)[nH]1 [Compound S-117] the “Fold-Synergistic 1a (Q30E)” value was greater than 10 fold. For CC(C)[C@H](NC(=O)C(C)(C)F)c1nc(-c2ccc3c(c2)CCc2cc(-c4c[nH]c([C@@H](NC(=O)C(C)(C)F)C(C)C)n4)ccc2-3)c[nH]1 [Compound N-75], the “Fold-Synergistic 1a (Q30E)” value was greater than 100 fold. For C[C@H]1C[C@@H](C(=O)N[C@H](c2nc(-c3ccc(-c4ccc(-c5c[nH]c([C@@H](NC(=O)[C@@H]6C[C@H](C)CN6C(=O)OC(C)(C)C)C(C)(C)C)n5)cc4)cc3)c[nH]2)C(C)(C)C)N(C(=O)OC(C)(C)C)C1 [Compound W-68], the “Fold-Synergistic 1a (Q30E)” value was greater than 100 fold. With CC(C)(C)[C@H](NC(=O)C1CCC(F)(F)C1)c1nc(-c2ccc(-c3ccc(-c4c[nH]c([C@@H](NC(=O)C5CCC(F)(F)C5)C(C)(C)C)n4)cc3)cc2)c[nH]1 (stereo partly drawn) [Compound N-111A] the “Fold-Synergistic 1a (Q30E)” value was greater than 100 fold. For Cn1cccc1C(=O)N1CCC[C@H]1c1ncc(-c2ccc(-c3ccc(-c4cnc([C@@H]5CCCN5C(=O)c5cccn5C)[nH]4)cc3)cc2)[nH]1 [Compound S-175], the “Fold-Synergistic 1a (Q30E)” value was less than 10 fold. With COc1ccccc1C1OC(=O)C[C@@H]1C(=O)N[C@H](c1nc(-c2ccc(-c3ccc(-c4c[nH]c([C@@H](NC(=O)[C@H]5CC(=O)OC5c5ccccc5OC)C(C)(C)C)n4)cc3)cc2)c[nH]1)C(C)(C)C (stereo partly drawn) [Compound S-263] the “Fold-Synergistic 1a (Q30E)” value was greater than 10 fold. For C[C@@H]1CCCCN1C(=O)C(=O)N[C@H](c1nc(-c2ccc(-c3ccc(-c4c[nH]c([C@@H](NC(=O)C(=O)N5CCCC[C@H]5C)C(C)(C)C)n4)cc3)cc2)c[nH]1)C(C)(C)C [Compound W-38], the “Fold-Synergistic 1a (Q30E)” value was greater than 100 fold. With CC(C)(C)[C@H](NC(=O)C1CCC(=C(F)F)CC1)c1nc(-c2ccc(-c3ccc(-c4c[nH]c([C@@H](NC(=O)C5CCC(=C(F)F)CC5)C(C)(C)C)n4)cc3)cc2)c[nH]1 (stereo partly drawn) [Compound N-121] the “Fold-Synergistic 1a (Q30E)” value was greater than 100 fold. CC(C)(C)[C@H](NC(=O)C1(O)CCCC1)c1nc(-c2ccc(-c3ccc(-c4c[nH]c([C@@H](NC(=O)C5(O)CCCC5)C(C)(C)C)n4)cc3)cc2)c[nH]1 [Compound L-73] was tested, and the “Fold-Synergistic 1a (Q30E)” value was greater than 100 fold. In the case of C[C@H]1C[C@H](C)OC(C)(C(=O)N[C@H](c2nc(-c3ccc(-c4ccc(-c5c[nH]c([C@@H](NC(=O)C6(C)O[C@@H](C)C[C@H](C)O6)C(C)(C)C)n5)cc4)cc3)c[nH]2)C(C)(C)C)O1 (stereo partly drawn) [Compound L-85], the “Fold-Synergistic 1a (Q30E)” value is reported as greater than 100 fold. O=C(c1nccc2c(Cl)cccc12)N1CCC[C@H]1c1ncc(-c2ccc(-c3ccc(-c4cnc([C@@H]5CCCN5C(=O)c5nccc6c(Cl)cccc56)[nH]4)cc3)cc2)[nH]1 [Compound S-206] was tested, and the “Fold-Synergistic 1a (Q30E)” value was greater than 100 fold. COC(C)(C(=O)N[C@H](c1nc(-c2ccc(-c3ccc(-c4c[nH]c([C@@H](NC(=O)C(C)(OC)C5(O)CCC(F)(F)CC5)C(C)(C)C)n4)cc3)cc2)c[nH]1)C(C)(C)C)C1(O)CCC(F)(F)CC1 (stereo partly drawn) [Compound P-156] was tested, and the “Fold-Synergistic 1a (Q30E)” value was greater than 100 fold. CC(C)(C)[C@H](NC(=O)[C@@]1(C)CC(F)(F)CCO1)c1nc(-c2ccc(-c3ccc(-c4c[nH]c([C@@H](NC(=O)[C@@]5(C)CC(F)(F)CCO5)C(C)(C)C)n4)cc3)cc2)c[nH]1 [Compound Y-75] was tested, and the “Fold-Synergistic 1a (Q30E)” value was greater than 100 fold. For O=C(c1ccccc1Oc1ccccc1)N1CCC[C@H]1c1ncc(-c2ccc(-c3ccc(-c4cnc([C@@H]5CCCN5C(=O)c5ccccc5Oc5ccccc5)[nH]4)cc3)cc2)[nH]1 [Compound S-114], the “Fold-Synergistic 1a (Q30E)” value was less than 10 fold. With C[C@H]1CC[C@@H](C(=O)N[C@H](c2nc(-c3ccc(-c4ccc(-c5c[nH]c([C@@H](NC(=O)[C@@H]6CC[C@H](C)N6C(=O)OC(C)(C)C)C(C)(C)C)n5)cc4)cc3)c[nH]2)C(C)(C)C)N1C(=O)OC(C)(C)C [Compound W-69] the “Fold-Synergistic 1a (Q30E)” value was greater than 100 fold. CC(C)[C@H](NC(=O)C(=O)N(CC(F)(F)F)C(C)C)c1nc(-c2ccc(-c3ccc(-c4c[nH]c([C@@H](NC(=O)C(=O)N(CC(F)(F)F)C(C)C)C(C)C)n4)cc3)cc2)c[nH]1 [Compound W-65] was tested, and the “Fold-Synergistic 1a (Q30E)” value was greater than 100 fold. In the case of COc1ccc(C2(C(=O)N3CCC[C@H]3c3ncc(-c4ccc(-c5ccc(-c6cnc([C@@H]7CCCN7C(=O)C7(c8ccc(OC)cc8)CCCC7)[nH]6)cc5)cc4)[nH]3)CCCC2)cc1 [Compound S-158], the “Fold-Synergistic 1a (Q30E)” value is reported as less than 10 fold. CC(C)(C)[C@H](NC(=O)C1(O)CCC1)c1nc(-c2ccc(-c3ccc(-c4c[nH]c([C@@H](NC(=O)C5(O)CCC5)C(C)(C)C)n4)cc3)cc2)c[nH]1 [Compound L-71] was tested, and the “Fold-Synergistic 1a (Q30E)” value was greater than 100 fold. With CC(C)(C)[C@H](NC(=O)[C@H]1CCC(=O)O1)c1nc(-c2ccc(-c3ccc(-c4c[nH]c([C@@H](NC(=O)[C@H]5CCC(=O)O5)C(C)(C)C)n4)cc3)cc2)c[nH]1 [Compound L-79] the “Fold-Synergistic 1a (Q30E)” value was less than 10 fold. With CC(C)(C)[C@H](NC(=O)CN1CCOC1=O)c1nc(-c2ccc(-c3ccc(-c4c[nH]c([C@@H](NC(=O)CN5CCOC5=O)C(C)(C)C)n4)cc3)cc2)c[nH]1 [Compound L-25] the “Fold-Synergistic 1a (Q30E)” value was greater than 10 fold. With COC(=O)N[C@H](C(=O)N[C@H](c1nc(-c2ccc(-c3ccc(-c4c[nH]c([C@@H](NC(=O)[C@@H](NC(=O)OC)C(C)C)C(C)(C)C)n4)cc3)cc2)c[nH]1)C(C)(C)C)C(C)C [Compound N-35] the “Fold-Synergistic 1a (Q30E)” value was greater than 100 fold. With CC(C)CC(=O)N[C@@H](c1ccccc1)c1nc(-c2ccc(-c3ccc(-c4c[nH]c([C@@H](NC(=O)CC(C)C)c5ccccc5)n4)cc3)cc2)c[nH]1 [Compound P-5] the “Fold-Synergistic 1a (Q30E)” value was greater than 100 fold. With C[C@@H](OC(=O)N(C)C1(C(=O)N[C@H](c2nc(-c3ccc(-c4ccc(-c5c[nH]c([C@@H](NC(=O)C6(N(C)C(=O)O[C@H](C)C(F)(F)F)CC6)C6(C)CC6)n5)cc4)cc3)c[nH]2)C2(C)CC2)CC1)C(F)(F)F [Compound L-92] the “Fold-Synergistic 1a (Q30E)” value was greater than 100 fold. In the case of C=CCC(F)(F)C(=O)N[C@H](c1nc(-c2ccc(-c3ccc(-c4c[nH]c([C@@H](NC(=O)C(F)(F)CC=C)C(C)(C)C)n4)cc3)cc2)c[nH]1)C(C)(C)C [Compound S-287], the “Fold-Synergistic 1a (Q30E)” value is reported as greater than 100 fold. In the case of O=C(CC1CCCCC1)N1CCC[C@H]1c1ncc(-c2ccc(-c3ccc(-c4cnc([C@@H]5CCCN5C(=O)CC5CCCCC5)[nH]4)cc3)cc2)[nH]1 [Compound S-168], the “Fold-Synergistic 1a (Q30E)” value is reported as greater than 10 fold. In the case of O=C(C1Cc2ccccc21)N1CCC[C@H]1c1ncc(-c2ccc(-c3ccc(-c4cnc([C@@H]5CCCN5C(=O)C5Cc6ccccc65)[nH]4)cc3)cc2)[nH]1 (stereo partly drawn) [Compound S-163], the “Fold-Synergistic 1a (Q30E)” value is reported as less than 10 fold.

Reference: US9326973B2, “Hepatitis C virus inhibitors” (priority 2012, dated 2016)
